Laboratory results reported in US20040208844A1, “Products and drug delivery vehicles” (priority 2001, published 2004).

Molecular target: T1, Human placenta or human platelet vitronectin receptor, αvβ3 (Homo sapiens, UniProt P05106+P06756)
T1 construct: Human placenta or human platelet vitronectin receptor, αvβ3; from tissue; host or cells: human placenta or human platelets
Test: [3H]-SK&F-107260 vitronectin receptor binding assay
Settings: sample dissolved in 1:1 TBS:DMSO; 5 nM [3H]-SK&F-107260
Protocol: In vitro binding affinity of conjugates, polymeric micelles and polymer therapeutics of the present invention may be determined by receptor binding assays such as are known in the art. Conjugates, polymeric micelles and polymer therapeutics of the present invention will have a Ki (the dissociation constant of the antagonist) according to a receptor binding assay in the nanomolar to micromolar range, preferably in the nanomolar range.
The following samples were prepared for an in vitro binding assay:
Solution #1: polymer-receptor antagonist conjugate according to Example 3b, dissolved in TBS at a concentration of 10 milliMole of VRA 1.
Solution #2: PEG-PLA copolymer according to Example 2B, dissolved in TBS at a concentration of 50 mg/ml;
Solution #3: VRA 1 dissolved in 1:1 TBS:DMSO at a concentration of 10 milliMole;
Solution #4: polymer-receptor antagonist conjugate according to Example 3b, dissolved in 1:1 TBS:DMSO at a concentration of 10 milliMole VRA 1; and […]
Binding studies were carried out according to the method described by Wong et al., Studies on alphavbeta3/ligand interactions using a (^3H)SK&F-107260 binding assay, Mol. Pharmacology, 1996, 50, 529-537. […] After one hour incubation at room temperature, the wells were aspirated completely and washed twice with 100 ul of ice-cold Buffer A. Bound [^3H]-SK&F-107260 was solubilized and counted.

T1 sequence (P06756 31-889 limits assumed): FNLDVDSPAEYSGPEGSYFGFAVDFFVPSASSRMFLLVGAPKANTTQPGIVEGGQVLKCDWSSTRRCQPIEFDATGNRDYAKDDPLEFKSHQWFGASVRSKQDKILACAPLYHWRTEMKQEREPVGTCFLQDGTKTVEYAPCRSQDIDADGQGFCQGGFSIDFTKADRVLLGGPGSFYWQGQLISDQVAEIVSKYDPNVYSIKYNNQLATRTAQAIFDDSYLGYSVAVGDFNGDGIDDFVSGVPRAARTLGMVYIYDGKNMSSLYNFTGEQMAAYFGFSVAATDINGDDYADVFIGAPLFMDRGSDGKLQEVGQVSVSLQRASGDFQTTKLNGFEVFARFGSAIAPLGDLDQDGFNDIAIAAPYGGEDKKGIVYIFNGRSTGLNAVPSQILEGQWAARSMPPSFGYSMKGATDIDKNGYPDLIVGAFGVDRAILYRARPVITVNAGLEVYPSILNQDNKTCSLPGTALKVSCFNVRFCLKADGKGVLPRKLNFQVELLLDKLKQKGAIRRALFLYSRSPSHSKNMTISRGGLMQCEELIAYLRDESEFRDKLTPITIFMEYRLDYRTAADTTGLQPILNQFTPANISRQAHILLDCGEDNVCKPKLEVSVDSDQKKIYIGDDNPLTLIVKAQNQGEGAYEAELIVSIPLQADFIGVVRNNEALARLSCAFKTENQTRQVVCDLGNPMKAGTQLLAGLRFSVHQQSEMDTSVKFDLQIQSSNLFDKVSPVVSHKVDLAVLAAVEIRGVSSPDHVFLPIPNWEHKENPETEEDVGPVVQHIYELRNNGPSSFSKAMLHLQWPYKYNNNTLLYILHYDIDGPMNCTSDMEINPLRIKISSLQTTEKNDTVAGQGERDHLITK
T1 sequence (P06756 891-1048 partner limits assumed): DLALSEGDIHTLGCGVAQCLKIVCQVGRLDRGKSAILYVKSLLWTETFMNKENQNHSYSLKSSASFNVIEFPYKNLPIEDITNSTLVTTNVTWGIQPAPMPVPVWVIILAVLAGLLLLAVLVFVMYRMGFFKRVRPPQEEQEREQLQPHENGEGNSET
T1 sequence (P05106 27-788): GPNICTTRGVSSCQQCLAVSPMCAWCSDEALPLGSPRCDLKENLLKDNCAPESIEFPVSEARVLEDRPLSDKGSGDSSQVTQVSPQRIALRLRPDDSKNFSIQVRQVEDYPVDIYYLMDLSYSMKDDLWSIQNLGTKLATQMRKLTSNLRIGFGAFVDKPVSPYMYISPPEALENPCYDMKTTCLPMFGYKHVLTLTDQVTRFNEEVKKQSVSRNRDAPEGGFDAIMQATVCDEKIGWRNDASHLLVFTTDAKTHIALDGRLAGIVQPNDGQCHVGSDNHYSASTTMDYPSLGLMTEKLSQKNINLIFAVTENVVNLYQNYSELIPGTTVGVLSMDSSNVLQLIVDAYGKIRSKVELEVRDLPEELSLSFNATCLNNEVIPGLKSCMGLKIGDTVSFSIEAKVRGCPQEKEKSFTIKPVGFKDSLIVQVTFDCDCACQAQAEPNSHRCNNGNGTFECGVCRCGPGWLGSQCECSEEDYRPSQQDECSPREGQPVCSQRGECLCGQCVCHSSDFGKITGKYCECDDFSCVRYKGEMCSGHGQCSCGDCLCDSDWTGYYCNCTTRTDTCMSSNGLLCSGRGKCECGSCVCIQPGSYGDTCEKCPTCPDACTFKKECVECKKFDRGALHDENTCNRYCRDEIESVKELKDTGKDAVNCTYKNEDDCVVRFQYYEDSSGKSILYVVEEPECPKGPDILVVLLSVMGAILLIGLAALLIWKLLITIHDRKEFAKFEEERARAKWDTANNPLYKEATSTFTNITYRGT

Ki: 1.7 nM
SMILES: CN1Cc2cc(C(=O)N(CCCCN)Cc3nc4ccccc4[nH]3)ccc2N[C@@H](CC(=O)O)C1=O [VRA 1, (S)-7-[[N-(4-Aminobutyl)-N-(benzimidazol-2-ylmethyl)]amino]carbonyl-4-methyl-3-oxo-2,3,4,5-tetrahydro-1H-1,4-benzodiazepine-2-acetic acid]
